Experimental findings from US20200108070A2, “INHIBITORS OF FIBROBLAST GROWTH FACTOR RECEPTOR AND USE THEREOF” (Nanjing TransThera Biosciences Co. Ltd., priority 2016, published 2020) are described below.

pIC50: −log10 of the molar value.

Experiment [1] deals with DMS114. The experiment can be described thus: Cellular activity test (Cell titer-Glo), DMS114. The experiment is classed as cell-based. To be noted: Homo sapiens, DMS-114, DMS114, small cell lung cancer cell with abnormal FGFR, 72 h, read-out: Inhibitory activity against cells (IC50) DMS114. The source says:
(§1) Experimental Example 2: Celluar Activity Test of the Compounds of the Present Invention
(§2) Hep3B is a cell with abnormal FGFR in hepatocellular carcinoma RT112/84 is a cell with abnormal FGFR in bladder cancer DMS114 is a cell with abnormal FGFR in small cell lung cancer AN3CA is a cell with abnormal FGFR in endometrial cancer SNU-16 is a cell with abnormal FGFR in gastric cancer
(§3) Test substance: The compounds of the present invention, the structures of which are shown above.
(§4) Test instrument: The Espire multi-function microplate reader.
(§5) Each cell line was seeded into a 96-well plate, and adherent cultured overnight. Then, the compounds at different concentrations (12 dose groups, 3× DMSO serial dilutions) were added to a final concentration of 0.17-30000 nM, with the final content of DMSO of 5‰. The negative control well was medium containing 5‰ DMSO. After incubation at 37° C., 5% CO2, 95% humidity for 72 h, the cultures would be test. 30 μL of Cell titer-Glo reagent was added to each well and incubated for 30 min at room temperature. The final data were read by Espire microplate reader.
On the technique in general: Cellular ATP, detected with luciferase, serves as a proxy for viable cell number.

Experiment [2] relates to AN3CA. The experiment can be described thus: Cellular activity test (Cell titer-Glo), AN3CA. In kind it is cell-based. As to conditions: Homo sapiens, AN3-CA, endometrial cancer cell with abnormal FGFR, 72 h, read-out: Inhibitory activity against cells (IC50) AN3CA.
Source text: as §1, §2, §3, §4, §5

For experiment [3], the system named is Hep3B. As to the kind of experiment: Cellular activity test (Cell titer-Glo), Hep3B. As to conditions: Homo sapiens, hepatocellular carcinoma cell with abnormal FGFR, 72 h, read-out: Inhibitory activity against cells (IC50) Hep3B. The experiment is classed as cell-based.
Source text: as §1, §2, §3, §4, §5

Experiment [4] deals with RT112/84. The experiment can be described thus: Cellular activity test (Cell titer-Glo), RT112/84. As to conditions: Homo sapiens, RT112/84, bladder cancer cell with abnormal FGFR, 72 h, read-out: Inhibitory activity against cells (IC50) RT112/84. The experiment is classed as cell-based.
Source text: as §1, §2, §3, §4, §5

For experiment [5], the system named is SNU-16. As to the kind of experiment: Cellular activity test (Cell titer-Glo), SNU-16. The experiment is classed as cell-based. To be noted: Homo sapiens, SNU-16, gastric cancer cell with abnormal FGFR, 72 h, read-out: Inhibitory activity against cells (IC50) SNU-16.
Source text: as §1, §2, §3, §4, §5

Experiment [6] has as its target FGFR1 (Homo sapiens, UniProt P11362). The experiment can be described thus: Enzymatic activity test (LabChip EZ Reader II / Caliper), FGFR1. The experiment is classed as biochemical. As to conditions: FGFR1(h), FAM-labelled polypeptide substrate and ATP, 30 min incubation; read-out: Inhibitory activity against FGFR (IC50) FGFR1. The procedure:
(§6) Experimental Example 1: Enzymatic Activity Test of the Compounds of the Present Invention
as §3
(§7) Test Instrument: The LabChip EZ Reader II drug screening platform.
(§8) 1. Preparation for compound plate a) 96-well plates, 10 dose groups, 3-fold serial dilutions, added DMSO to each well, maximal concentration of 500 μM. b) 384-well plates, diluted with 1× kinase buffer (50 mM HEPES, pH 7.5; 0.0015% Brij-35; 2 mM DTT), each well containing 5× compound dissolved in 5 μL of 10% DMSO. The negative control well was 5 μL of 1× kinase buffer containing 10% DMSO. 2. Experimental procedure
(§9) […] in 1× kinase buffer were reacted with 2.5× enzyme solution at room temperature for 10 min, and then the FAM-labelled polypeptide substrate and ATP were added to initiate reaction. After incubation for 30 min, 25 μL of terminal solution (100 mM HEPES, pH 7.5; 0.015% Brij-35; 0.2% Coating Reagent #3; 50 mM EDTA) was added to terminate the reaction, and the final data were read by Caliper.

Experiment [7] has as its target FGFR4 (Homo sapiens, UniProt P22455). As to the kind of experiment: Enzymatic activity test (LabChip EZ Reader II / Caliper), FGFR4. The experiment is classed as biochemical. As to conditions: FGFR4(h), FAM-labelled polypeptide substrate and ATP, 30 min incubation; read-out: Inhibitory activity against FGFR (IC50) FGFR4. The procedure:
as §6, §3, §7, §8, §9

Experiment [8] deals with FGFR2 (Homo sapiens, UniProt P21802). As to the kind of experiment: Enzymatic activity test (LabChip EZ Reader II / Caliper), FGFR2. The experiment is classed as biochemical. To be noted: FGFR2(h), FAM-labelled polypeptide substrate and ATP, 30 min incubation; read-out: Inhibitory activity against FGFR (IC50) FGFR2. The procedure: as §6, §3, §7, §8, §9
In experiment [9] the target is FGFR3 (Homo sapiens, UniProt P22607). The experiment can be described thus: Enzymatic activity test (LabChip EZ Reader II / Caliper), FGFR3. In kind it is biochemical. As to conditions: FGFR3(h), FAM-labelled polypeptide substrate and ATP, 30 min incubation; read-out: Inhibitory activity against FGFR (IC50) FGFR3. The procedure: as §6, §3, §7, §8, §9
FGFR3, sequence (P22607 23-806): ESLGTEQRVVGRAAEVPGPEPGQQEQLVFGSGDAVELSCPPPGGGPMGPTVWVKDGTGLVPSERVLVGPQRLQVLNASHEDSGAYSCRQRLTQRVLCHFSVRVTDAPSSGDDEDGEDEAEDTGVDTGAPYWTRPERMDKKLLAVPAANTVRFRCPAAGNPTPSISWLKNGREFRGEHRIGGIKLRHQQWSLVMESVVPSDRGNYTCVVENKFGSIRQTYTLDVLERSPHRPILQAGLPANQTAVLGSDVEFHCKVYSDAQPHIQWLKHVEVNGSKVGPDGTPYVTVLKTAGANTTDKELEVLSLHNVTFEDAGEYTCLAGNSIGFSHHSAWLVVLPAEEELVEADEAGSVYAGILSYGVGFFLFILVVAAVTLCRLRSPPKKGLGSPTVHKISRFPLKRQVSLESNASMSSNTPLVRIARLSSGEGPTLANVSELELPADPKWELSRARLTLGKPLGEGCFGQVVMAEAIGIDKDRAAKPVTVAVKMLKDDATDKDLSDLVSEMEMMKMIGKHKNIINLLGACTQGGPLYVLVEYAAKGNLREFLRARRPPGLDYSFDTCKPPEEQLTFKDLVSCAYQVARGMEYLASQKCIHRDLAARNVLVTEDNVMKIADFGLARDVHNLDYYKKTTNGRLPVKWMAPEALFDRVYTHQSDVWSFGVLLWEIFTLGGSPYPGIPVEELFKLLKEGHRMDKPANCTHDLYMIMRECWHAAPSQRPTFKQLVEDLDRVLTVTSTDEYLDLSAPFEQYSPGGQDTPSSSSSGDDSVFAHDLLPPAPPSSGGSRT

FGFR1, sequence (P11362 22-822): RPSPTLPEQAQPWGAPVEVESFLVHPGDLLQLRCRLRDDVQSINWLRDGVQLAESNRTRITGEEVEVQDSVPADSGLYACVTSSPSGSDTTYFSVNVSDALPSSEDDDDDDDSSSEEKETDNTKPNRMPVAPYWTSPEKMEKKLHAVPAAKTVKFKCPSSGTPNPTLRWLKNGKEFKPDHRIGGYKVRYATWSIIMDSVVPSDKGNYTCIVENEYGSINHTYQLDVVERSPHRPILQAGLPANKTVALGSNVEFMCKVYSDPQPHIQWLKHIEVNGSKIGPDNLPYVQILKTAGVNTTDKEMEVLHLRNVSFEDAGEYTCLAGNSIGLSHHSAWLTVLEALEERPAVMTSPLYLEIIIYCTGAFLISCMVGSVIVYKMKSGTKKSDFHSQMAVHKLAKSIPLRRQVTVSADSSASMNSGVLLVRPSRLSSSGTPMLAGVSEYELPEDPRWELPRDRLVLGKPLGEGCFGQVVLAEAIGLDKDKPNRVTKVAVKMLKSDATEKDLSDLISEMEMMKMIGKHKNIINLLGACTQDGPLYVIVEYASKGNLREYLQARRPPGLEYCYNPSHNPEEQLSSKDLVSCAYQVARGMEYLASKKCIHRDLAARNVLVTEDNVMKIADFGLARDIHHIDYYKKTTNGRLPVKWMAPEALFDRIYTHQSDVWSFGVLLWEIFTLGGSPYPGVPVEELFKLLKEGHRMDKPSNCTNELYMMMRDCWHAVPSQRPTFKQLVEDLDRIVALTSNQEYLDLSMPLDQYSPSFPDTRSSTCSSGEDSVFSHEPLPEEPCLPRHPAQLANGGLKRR
FGFR4, sequence (P22455 22-802): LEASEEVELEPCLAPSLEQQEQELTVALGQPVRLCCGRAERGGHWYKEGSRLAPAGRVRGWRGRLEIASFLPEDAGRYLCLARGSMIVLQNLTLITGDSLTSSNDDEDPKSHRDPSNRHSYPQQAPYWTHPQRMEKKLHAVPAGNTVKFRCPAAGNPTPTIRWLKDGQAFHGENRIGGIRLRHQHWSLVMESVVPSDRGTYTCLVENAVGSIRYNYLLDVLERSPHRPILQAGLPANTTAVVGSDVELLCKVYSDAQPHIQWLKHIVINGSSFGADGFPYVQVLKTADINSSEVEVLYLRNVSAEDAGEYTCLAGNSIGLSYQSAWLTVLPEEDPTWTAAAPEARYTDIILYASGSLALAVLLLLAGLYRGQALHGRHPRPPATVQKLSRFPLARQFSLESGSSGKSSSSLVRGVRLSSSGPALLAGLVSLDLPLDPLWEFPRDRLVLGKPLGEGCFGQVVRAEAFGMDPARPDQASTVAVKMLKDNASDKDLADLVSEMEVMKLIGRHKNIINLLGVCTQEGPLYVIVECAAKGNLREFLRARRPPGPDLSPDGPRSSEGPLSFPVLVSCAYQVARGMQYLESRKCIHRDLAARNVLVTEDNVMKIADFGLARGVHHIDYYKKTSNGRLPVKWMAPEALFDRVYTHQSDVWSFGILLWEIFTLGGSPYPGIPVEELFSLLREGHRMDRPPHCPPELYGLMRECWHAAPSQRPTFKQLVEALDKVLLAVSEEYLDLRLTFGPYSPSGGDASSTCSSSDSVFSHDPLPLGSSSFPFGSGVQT
FGFR2, sequence (P21802 22-821): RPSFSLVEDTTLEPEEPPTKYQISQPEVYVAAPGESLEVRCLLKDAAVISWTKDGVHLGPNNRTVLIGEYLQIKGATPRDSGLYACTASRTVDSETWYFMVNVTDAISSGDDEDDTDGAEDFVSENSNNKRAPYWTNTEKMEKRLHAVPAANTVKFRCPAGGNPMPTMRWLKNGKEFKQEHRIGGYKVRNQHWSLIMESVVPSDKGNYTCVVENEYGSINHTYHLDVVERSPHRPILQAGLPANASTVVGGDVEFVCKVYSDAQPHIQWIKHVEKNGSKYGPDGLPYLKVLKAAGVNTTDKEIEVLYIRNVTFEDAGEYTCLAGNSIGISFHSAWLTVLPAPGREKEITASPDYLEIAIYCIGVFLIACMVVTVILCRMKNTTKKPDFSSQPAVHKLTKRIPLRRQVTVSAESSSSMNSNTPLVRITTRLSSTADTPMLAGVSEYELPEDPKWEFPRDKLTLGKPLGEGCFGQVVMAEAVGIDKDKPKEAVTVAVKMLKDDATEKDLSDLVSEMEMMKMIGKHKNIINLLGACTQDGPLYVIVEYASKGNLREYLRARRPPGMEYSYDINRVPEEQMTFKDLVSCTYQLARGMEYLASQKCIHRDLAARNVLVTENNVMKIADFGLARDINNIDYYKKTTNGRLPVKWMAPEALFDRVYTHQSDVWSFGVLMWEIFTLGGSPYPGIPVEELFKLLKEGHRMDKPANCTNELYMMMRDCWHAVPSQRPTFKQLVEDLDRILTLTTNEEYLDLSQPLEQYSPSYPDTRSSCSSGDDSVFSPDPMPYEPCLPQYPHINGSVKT

For the compound `C=CC(=O)N1C[C@@H](Nc2ncc3cc(-c4c(Cl)c(OC)cc(OC)c4Cl)ccc3n2)C[C@@H]1CO` [Compound 23], the pIC50 in experiment [1] is 7.51; in experiment [2] it was 7.07; in experiment [3], 7.59; in experiment [4], 7.30; in experiment [5] it was 7.66.
With `C=CC(=O)N1CC[C@H](Nc2ncc3cc(-c4c(Cl)c(OC)cc(OC)c4Cl)ccc3n2)C1` [Compound 5, (S)-1-(3-((6-(2,6-dichloro-3,5-dimethoxyphenyl)quinazolin-2-yl)amino)pyrrolidin-1-yl)propyl-2-en-1-one], the pIC50 was 7.24 in experiment [1]; 8.27 in experiment [6]; 6.76 in [7]; 6.82 in experiment [3]; 8.26 in experiment [8]; 7.25 in experiment [4]. In addition, the pIC50 in experiment [9] was 7.74.
With `C=CC(=O)N1CC2(CC(Nc3ncc4cc(-c5c(Cl)c(OC)cc(OC)c5Cl)ccc4n3)C2)C1` [Compound 65, 1-(6-((6-(2,6-dichloro-3,5-dimethoxyphenyl)quinazolin-2-yl)amino)-2-azaspiro[3.3]heptan-2-yl)prop-2-en-1-one], the pIC50 in [3] is 7.18; in experiment [4], 6.79; in experiment [5] it was 7.04.
Take `C=CC(=O)N1CC(Nc2ncc3cc(-c4c(Cl)c(OC)cc(OC)c4Cl)ccc3n2)c2ccccc21` (stereo not shown) [Compound 67]: the pIC50 in experiment [6] was 8.10; in [7], 6.89; in experiment [8], 7.25.
On to `C=CC(=O)N1C[C@H](O)[C@H](Nc2ncc3cc(-c4c(Cl)c(OC)cc(OC)c4Cl)ccc3n2)C1` [Compound 46], for which the pIC50 in experiment [6] is 8.24; in experiment [8], 8.09; in experiment [9] it was 7.66.
As for `C=CC(=O)N1C[C@@H](CC)[C@H](Nc2ncc3cc(-c4c(Cl)c(OC)cc(OC)c4Cl)ccc3n2)C1` [Compound 48], the results for the pIC50 in [6], in experiment [8] and in [9] were 7.77, 7.60 and 7.12, respectively.
In the case of `C=CC(=O)N1C[C@@H](C)[C@H](Nc2ncc3cc(-c4c(Cl)c(OC)cc(OC)c4Cl)ccc3n2)C1` [Compound 20, 1-((3S,4R)-3-((6-(2,6-dichloro-3,5-dimethoxyphenyl)quinazolin-2-yl)amino)-4-methylpyrrolidin-1-yl)propyl-2-en-1-one], the pIC50 in [1] was 6.95; in experiment [6], 7.82; in experiment [7], 7.17; in experiment [3], 7.30; in experiment [8], 7.82; in experiment [4] it was 7.11. The pIC50 in experiment [9] was 7.47.
On to `C=CC(=O)N1C[C@@H](Nc2ncc3cc(-c4c(Cl)c(OC)cc(OC)c4Cl)ccc3n2)C[C@H]1CF` [Compound 24, 1-((2S,4S)-4-((6-(2,6-dichloro-3,5-dimethoxyphenyl)quinazolin-2-yl)amino)-2-(fluoromethyl)pyrrolidin-1-yl)prop-2-en-1-one], for which the pIC50 in experiment [3] was 7.34; in [4], 6.82; in [5] it was 7.32.
`C=CC(=O)N1C[C@@H](Nc2ncc3cc(-c4c(Cl)c(OC)cc(OC)c4Cl)ccc3n2)C[C@H]1CO` [Compound 22, 1-((2S,4S)-4-((6-(2,6-dichloro-3,5-dimethoxyphenyl)quinazolin-2-yl)amino)-2-(hydroxymethyl)pyrrolidin-1-yl)prop-2-en-1-one]: the pIC50 was 7.60 in [1]; 8.34 in experiment [6]; 7.23 in experiment [2]; 7.00 in experiment [7]; 7.49 in experiment [3]; 8.36 in [8]. Also, the pIC50 was 7.40 in [4], 7.72 in experiment [9] and 7.96 in [5].
